Measured values taken from PMC8760370, “Combinatorial inhibition of BTK, PI3K-AKT and BRD4-MYC as a strategy for treatment of mantle cell lymphoma” (Molecular Biomedicine, 2022).
Like-named read-outs stand apart in the source and are kept apart here.

How the values were obtained:
JeKo-1 cells [1] = assay: Cell viability assay (alamarBlue / CellTiter-Glo), JeKo-1; type: cell-based; details: Homo sapiens, JeKo-1, 48 h; read-out: IC50, anti-proliferative activity, JeKo-1
Method: (§2) Cells were treated with DMSO (0.1% final) or increasing concentrations of the indicated inhibitors for 48 h. 100 μL of Alamar blue (ThermoFisher Scientific) and Cell titer Glow assay reagent (Promega Cat # G9241) was added to each well, and the cells were incubated for 10 min at room temperature. Luminescence signal was measured in a VarioScan multimode reader. For Alamar Blue, fluorescence signals were read (emission at 590 nm after excitation at 560 nm). Averaged values were normalized as a percentage of DMSO (control) and analyzed by nonlinear regression then plotted for dose response using GraphPad Prism (GraphPad Software, Inc.). Experiments were performed in triplicate.

[2] = system: BTK and AKT phosphorylation; assay: Inhibitor washout assay, Mino cells; type: cell-based, human; details: 1 h treatment, washes with PBS
Method: The BCR pathways in the washed cells were stimulated with 10 μg/mL of goat F(ab’)2 anti-human IgM antibody, and the cells were harvested and lysed. The resulting lysates were analyzed by western blot.

Mino BTK C481S cells = assay: Cell viability assay, Mino BTK C481S; type: cell-based; details: Homo sapiens, 48 h
Method: as §2

JeKo-1 cells [3] = assay: FITC Annexin V apoptosis assay, JeKo-1; type: cell-based, human; details: JeKo-1, 5 μM, 24 h
Method: Jeko-1 and Mino cells were seeded at a density of 2x10^6 cells and incubated overnight. […] The labeled cells were analyzed using BD Accuri C6 Flow cytometer. Experiments were performed in duplicate.

Mino cells [4] = assay: FITC Annexin V apoptosis assay, Mino; type: cell-based, human; details: 5 μM, 24 h
Method: Jeko-1 and Mino cells were seeded at a density of 2x10^6 cells and incubated overnight. […] Cells were harvested and washed twice with cold PBS, and then labeled with Annexin V-FITC and PI (BD Pharmingen, Cat # 556419) or Annexin APC (Thermo Fisher, Cat # A35110) according to the manufacturer’s protocol (BD Pharmingen). The labeled cells were analyzed using BD Accuri C6 Flow cytometer. Experiments were performed in duplicate.

JeKo-1 BTK C481S cells = assay: Cell viability assay, JeKo-1 BTK C481S; type: cell-based; details: Homo sapiens, JeKo-1, 48 h
Method: as §2

Mino cells [5] = assay: Cell viability assay (alamarBlue / CellTiter-Glo), Mino; type: cell-based; details: Homo sapiens, 48 h, read-out: IC50, anti-proliferative activity, Mino
Method: as §2

[6] = system: relapsed/refractory (R/R) MCL patients; details: R/R MCL patients treated with Ibrutinib; cited from earlier work
PI3Kα = molecular target: T1, PI3Kα (Homo sapiens, UniProt P42336); assay: Adapta kinase activity assay, PI3Kα; type: biochemical
T1 construct: purchased ThermoFisher Scientific (contract assay)
T1 sequence (P42336 whole entry): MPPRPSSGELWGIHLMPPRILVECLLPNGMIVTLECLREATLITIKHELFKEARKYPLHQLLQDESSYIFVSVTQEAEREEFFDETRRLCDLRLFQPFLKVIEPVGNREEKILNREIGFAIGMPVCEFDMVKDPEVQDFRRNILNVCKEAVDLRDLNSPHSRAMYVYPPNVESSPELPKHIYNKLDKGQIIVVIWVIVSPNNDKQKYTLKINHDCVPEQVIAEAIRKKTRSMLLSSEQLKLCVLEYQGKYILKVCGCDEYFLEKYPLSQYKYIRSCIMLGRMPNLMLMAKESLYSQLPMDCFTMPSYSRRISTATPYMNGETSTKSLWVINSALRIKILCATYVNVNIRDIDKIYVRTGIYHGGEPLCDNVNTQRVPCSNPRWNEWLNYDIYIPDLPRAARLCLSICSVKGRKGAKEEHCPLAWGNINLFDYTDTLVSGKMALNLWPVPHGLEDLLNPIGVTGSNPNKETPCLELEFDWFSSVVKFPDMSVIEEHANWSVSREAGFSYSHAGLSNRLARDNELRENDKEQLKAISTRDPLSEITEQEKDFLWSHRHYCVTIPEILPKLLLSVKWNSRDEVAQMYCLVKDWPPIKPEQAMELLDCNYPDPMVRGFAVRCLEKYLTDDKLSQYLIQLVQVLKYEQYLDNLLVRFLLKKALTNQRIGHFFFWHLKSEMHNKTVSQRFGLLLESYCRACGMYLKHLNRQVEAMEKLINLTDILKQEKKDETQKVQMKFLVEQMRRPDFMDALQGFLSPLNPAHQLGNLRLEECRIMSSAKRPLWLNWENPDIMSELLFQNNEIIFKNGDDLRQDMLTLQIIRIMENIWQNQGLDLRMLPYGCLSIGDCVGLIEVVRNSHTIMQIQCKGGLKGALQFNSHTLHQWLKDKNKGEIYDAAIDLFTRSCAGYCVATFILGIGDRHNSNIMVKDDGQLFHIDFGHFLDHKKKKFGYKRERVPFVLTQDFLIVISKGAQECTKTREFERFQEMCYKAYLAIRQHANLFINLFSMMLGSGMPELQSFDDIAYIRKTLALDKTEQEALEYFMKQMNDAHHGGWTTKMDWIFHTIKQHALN
T1 sequence (P27986 whole entry partner): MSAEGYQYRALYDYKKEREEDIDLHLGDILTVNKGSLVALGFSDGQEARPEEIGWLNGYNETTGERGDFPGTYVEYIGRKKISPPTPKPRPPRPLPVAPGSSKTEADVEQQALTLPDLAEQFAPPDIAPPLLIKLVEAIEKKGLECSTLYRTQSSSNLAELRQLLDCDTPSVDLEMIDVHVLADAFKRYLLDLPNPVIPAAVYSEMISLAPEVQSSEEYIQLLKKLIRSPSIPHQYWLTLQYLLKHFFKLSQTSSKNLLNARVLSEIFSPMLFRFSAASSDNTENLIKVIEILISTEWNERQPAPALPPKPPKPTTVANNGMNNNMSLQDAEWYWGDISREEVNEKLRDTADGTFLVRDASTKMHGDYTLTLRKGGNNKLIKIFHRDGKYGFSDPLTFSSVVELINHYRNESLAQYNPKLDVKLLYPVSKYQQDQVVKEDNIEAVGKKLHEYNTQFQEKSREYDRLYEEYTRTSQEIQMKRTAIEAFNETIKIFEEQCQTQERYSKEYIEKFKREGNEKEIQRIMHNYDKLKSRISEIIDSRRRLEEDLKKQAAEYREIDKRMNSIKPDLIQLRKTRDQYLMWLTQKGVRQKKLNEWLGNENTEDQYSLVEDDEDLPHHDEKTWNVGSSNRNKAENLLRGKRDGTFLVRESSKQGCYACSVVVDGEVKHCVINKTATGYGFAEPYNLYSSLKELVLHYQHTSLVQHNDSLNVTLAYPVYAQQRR
Method: (§1) Adapta kinase activity assays were carried out by ThermoFisher Scientific (Waltham, MA) to measure IC50 of the indicated inhibitors for PI3K isoforms. Kinase activity assays were carried out by Reaction Biology (Malvern, PA) to measure IC50 of the indicated inhibitors for BTK WT and BTK C481S (Ibrutinib-resistant mutant). Alpha Screen assays were carried out by Reaction Biology (Malvern, PA) to measure IC50 of the indicated inhibitors for His-tagged BRD4 BD1 and BD2 bromodomains.

[7] = molecular target: T2, BTK C481S (Ibrutinib-resistant mutant) (Homo sapiens, UniProt Q06187, C481S); assay: Kinase activity assay, BTK C481S; type: biochemical
T2 construct: purchased Reaction Biology (contract assay)
T2 sequence (Q06187 whole entry C481S): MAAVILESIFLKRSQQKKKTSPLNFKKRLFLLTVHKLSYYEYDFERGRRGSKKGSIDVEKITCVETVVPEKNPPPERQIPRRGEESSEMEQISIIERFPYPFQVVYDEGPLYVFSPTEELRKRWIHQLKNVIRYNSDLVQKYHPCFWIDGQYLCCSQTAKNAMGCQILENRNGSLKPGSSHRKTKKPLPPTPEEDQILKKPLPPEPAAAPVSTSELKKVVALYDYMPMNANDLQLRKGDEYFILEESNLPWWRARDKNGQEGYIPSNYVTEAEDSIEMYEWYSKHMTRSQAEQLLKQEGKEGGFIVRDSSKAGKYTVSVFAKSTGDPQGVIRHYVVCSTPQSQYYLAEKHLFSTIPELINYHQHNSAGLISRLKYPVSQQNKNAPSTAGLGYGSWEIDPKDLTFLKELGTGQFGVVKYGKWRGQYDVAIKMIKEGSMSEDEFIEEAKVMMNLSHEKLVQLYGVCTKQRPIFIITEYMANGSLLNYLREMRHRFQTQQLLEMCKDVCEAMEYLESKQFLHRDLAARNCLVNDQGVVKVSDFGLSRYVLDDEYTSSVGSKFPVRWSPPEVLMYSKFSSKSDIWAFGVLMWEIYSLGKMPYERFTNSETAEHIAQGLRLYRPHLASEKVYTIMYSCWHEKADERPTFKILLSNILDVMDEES

PI3Kδ = molecular target: T3, PI3Kδ (Homo sapiens, UniProt O00329); assay: Adapta kinase activity assay, PI3Kδ; type: biochemical
T3 construct: purchased ThermoFisher Scientific (contract assay)
T3 sequence (O00329 whole entry): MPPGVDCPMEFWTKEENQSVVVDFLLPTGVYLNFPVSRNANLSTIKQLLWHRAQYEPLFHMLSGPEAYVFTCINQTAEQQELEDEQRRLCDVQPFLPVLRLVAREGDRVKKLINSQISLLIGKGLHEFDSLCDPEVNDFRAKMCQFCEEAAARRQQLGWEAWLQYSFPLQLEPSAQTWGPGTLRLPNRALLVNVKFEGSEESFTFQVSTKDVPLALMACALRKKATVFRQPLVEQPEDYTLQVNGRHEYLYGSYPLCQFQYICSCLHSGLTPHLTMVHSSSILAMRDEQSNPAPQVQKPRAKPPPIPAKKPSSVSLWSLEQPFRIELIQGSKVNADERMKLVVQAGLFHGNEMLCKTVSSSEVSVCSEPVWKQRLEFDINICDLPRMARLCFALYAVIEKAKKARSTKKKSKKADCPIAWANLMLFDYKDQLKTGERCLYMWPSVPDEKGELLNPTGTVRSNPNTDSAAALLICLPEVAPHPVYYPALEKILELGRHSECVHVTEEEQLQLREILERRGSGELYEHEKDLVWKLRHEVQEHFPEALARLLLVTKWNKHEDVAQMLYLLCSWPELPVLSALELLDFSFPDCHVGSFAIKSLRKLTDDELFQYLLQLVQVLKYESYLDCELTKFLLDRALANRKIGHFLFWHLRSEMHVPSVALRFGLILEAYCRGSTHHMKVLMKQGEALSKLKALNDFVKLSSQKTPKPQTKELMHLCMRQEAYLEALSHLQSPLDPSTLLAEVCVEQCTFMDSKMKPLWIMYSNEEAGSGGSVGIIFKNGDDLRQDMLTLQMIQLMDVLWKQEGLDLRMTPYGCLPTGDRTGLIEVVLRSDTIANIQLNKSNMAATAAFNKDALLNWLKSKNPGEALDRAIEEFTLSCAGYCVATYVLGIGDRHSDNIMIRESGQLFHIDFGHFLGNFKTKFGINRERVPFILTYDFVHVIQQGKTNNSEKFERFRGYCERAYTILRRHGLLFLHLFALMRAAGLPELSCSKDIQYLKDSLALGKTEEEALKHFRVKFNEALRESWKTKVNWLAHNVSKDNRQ
T3 sequence (P27986 whole entry partner): as the sequence (P27986 whole entry partner) above
Method: as §1

BTK WT = molecular target: T4, BTK WT (Homo sapiens, UniProt Q06187); assay: Kinase activity assay, BTK WT; type: biochemical
T4 construct: purchased Reaction Biology (contract assay)
T4 sequence (Q06187 whole entry): as the sequence (Q06187 whole entry C481S) above, with S481C counted along it

PI3Kγ = molecular target: T5, PI3Kγ (Homo sapiens, UniProt P48736); assay: Adapta kinase activity assay, PI3Kγ; type: biochemical
T5 construct: purchased ThermoFisher Scientific (contract assay)
T5 sequence (P48736 whole entry): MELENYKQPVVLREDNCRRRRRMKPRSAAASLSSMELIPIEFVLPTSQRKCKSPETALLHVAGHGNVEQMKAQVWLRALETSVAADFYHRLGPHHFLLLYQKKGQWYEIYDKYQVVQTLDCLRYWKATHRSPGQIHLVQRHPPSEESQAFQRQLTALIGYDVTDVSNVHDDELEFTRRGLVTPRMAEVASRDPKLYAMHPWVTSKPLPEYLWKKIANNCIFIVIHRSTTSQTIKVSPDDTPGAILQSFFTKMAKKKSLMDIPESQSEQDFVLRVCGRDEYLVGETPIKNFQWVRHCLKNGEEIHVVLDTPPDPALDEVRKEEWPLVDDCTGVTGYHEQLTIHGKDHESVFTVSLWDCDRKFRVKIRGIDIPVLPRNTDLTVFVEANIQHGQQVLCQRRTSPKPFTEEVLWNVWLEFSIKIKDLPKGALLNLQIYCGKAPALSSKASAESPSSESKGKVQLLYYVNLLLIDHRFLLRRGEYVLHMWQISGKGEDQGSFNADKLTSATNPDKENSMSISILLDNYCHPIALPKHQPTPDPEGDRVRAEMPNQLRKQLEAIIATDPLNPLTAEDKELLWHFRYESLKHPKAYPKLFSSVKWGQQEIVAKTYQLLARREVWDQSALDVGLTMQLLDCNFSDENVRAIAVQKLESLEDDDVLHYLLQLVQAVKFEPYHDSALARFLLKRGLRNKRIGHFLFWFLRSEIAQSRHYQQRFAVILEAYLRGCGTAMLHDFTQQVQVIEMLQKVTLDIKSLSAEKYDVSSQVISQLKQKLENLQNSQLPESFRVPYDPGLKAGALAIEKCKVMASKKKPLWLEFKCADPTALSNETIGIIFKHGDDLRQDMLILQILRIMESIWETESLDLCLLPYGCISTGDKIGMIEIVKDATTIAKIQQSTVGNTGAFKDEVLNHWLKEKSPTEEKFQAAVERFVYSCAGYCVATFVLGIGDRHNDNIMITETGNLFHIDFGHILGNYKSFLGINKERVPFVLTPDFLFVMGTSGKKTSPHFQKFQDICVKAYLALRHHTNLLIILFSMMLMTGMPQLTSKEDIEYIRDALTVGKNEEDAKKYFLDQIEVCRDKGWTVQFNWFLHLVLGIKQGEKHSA
Method: as §1

SMILES: C=CC(=O)N1CCC[C@@H](n2nc(-c3ccc(Oc4ccccc4)cc3)c3c(N)ncnc32)C1 [Ibrutinib]
- IC50 (JeKo-1 cells [1]): 24.8 µM
- BTK phosphorylation after inhibitor wash out [2]: retained inhibition of BTK phosphorylation
- IC50 (Mino BTK C481S cells; read-out: IC50, Mino BTK C481S): 6 µM
- IC50 (Mino BTK C481S cells; read-out: IC50, anti-proliferative activity, Mino BTK C481S): 6.36 µM
- apoptosis (Annexin V and propidium incorporation) (JeKo-1 cells [3]): no significant effect
- apoptosis (Annexin V and propidium incorporation) (Mino cells [4]): mild effect
- IC50 (JeKo-1 BTK C481S cells; read-out: IC50, JeKo-1 BTK C481S): 38 µM
- IC50 (JeKo-1 BTK C481S cells; read-out: IC50, anti-proliferative activity, JeKo-1 BTK C481S): 38.4 µM
- IC50 (Mino cells [5]): 2440 nM
- median progression free survival [6]: ~ 14 months
- overall response rate [6]: 68%
- patients reaching a complete response [6]: 21%

SMILES: Cc1sc2c(c1C)C(c1ccc(Cl)cc1)=N[C@@H](CC(=O)OC(C)(C)C)c1nnc(C)n1-2 [JQ1]
- IC50 (PI3Kα): > 50 µM
- IC50, BTK C481S [7]: no activity
- IC50 (PI3Kδ): > 50 µM
- IC50, BTK WT (BTK WT): no activity
- IC50 (PI3Kγ): > 50 µM

SMILES: Cc1c(-c2ccc(C(N)=O)c3[nH]c4cc(C(C)(C)O)ccc4c23)cccc1-n1cnc2ccccc2c1=O [BMS-935177]
- BTK phosphorylation after inhibitor wash out [2]: regained BTK phosphorylation

SMILES: CN[C@@H]1C[C@H]2O[C@@](C)([C@@H]1OC)n1c3ccccc3c3c4c(c5c6ccccc6n2c5c31)C(=O)NC4 [Staurosporine]
- IC50, PI3Kα (PI3Kα): no activity
- IC50, PI3Kδ (PI3Kδ): no activity
- IC50, PI3Kγ (PI3Kγ): no activity
